Source: ChEMBL document CHEMBL1649248, “Two distinct major facilitator superfamily drug efflux pumps mediate chloramphenicol resistance in Streptomyces coelicolor” (2009)
In brackets after ≈: the same amount, converted by molar mass. Peptide text beside a SMILES is read from it. * marks the point of attachment. βNA = c1ccc2cc(N*)ccc2c1

Assays:
[1] = test system: Streptomyces coelicolor; test: Inhibition of MFS efflux pump in Streptomyces coelicolor assessed as reduction in chloramphenicol MIC at 10 ug/ml after 48 hrs relative to control
[2] = test system: Streptomyces coelicolor; test: Inhibition of MFS efflux pump in apramycin-resistant cmlR1 null mutant Streptomyces coelicolor assessed as reduction in chloramphenicol MIC at 75 ug/ml after 48 hrs relative to control
[3] = test system: Streptomyces coelicolor; test: Antimicrobial activity against Streptomyces coelicolor after 48 hrs; format: functional
[4] = test system: Streptomyces coelicolor; test: Inhibition of MFS efflux pump in apramycin-resistant cmlR2 null mutant Streptomyces coelicolor assessed as reduction in chloramphenicol MIC at 25 ug/ml after 48 hrs relative to control
[5] = test system: Streptomyces coelicolor; test: Inhibition of MFS efflux pump in apramycin-resistant cmlR2 null mutant Streptomyces coelicolor assessed as reduction in chloramphenicol MIC at 50 ug/ml after 48 hrs relative to control
[6] = test system: Streptomyces coelicolor; test: Inhibition of MFS efflux pump in apramycin-resistant cmlR1 null mutant Streptomyces coelicolor assessed as reduction in chloramphenicol MIC at 50 ug/ml after 48 hrs relative to control
[7] = test system: Streptomyces coelicolor; test: Inhibition of MFS efflux pump in Streptomyces coelicolor assessed as reduction in chloramphenicol MIC at 50 ug/ml after 48 hrs relative to control
[8] = test system: Streptomyces coelicolor; test: Inhibition of MFS efflux pump in apramycin-resistant cmlR2 null mutant Streptomyces coelicolor assessed as reduction in chloramphenicol MIC at 10 ug/ml after 48 hrs relative to control
[9] = test system: Streptomyces coelicolor; test: Inhibition of MFS efflux pump in apramycin-resistant cmlR1 null mutant Streptomyces coelicolor assessed as reduction in chloramphenicol MIC at 25 ug/ml after 48 hrs relative to control
[10] = test system: Streptomyces coelicolor; test: Inhibition of MFS efflux pump in apramycin-resistant cmlR2 null mutant Streptomyces coelicolor assessed as reduction in chloramphenicol MIC at 75 ug/ml after 48 hrs relative to control
[11] = test system: Streptomyces coelicolor; test: Inhibition of MFS efflux pump in Streptomyces coelicolor assessed as reduction in chloramphenicol MIC at 75 ug/ml after 48 hrs relative to control
[12] = test system: Streptomyces coelicolor; test: Inhibition of MFS efflux pump in Streptomyces coelicolor assessed as reduction in chloramphenicol MIC at 25 ug/ml after 48 hrs relative to control
[13] = test system: Streptomyces coelicolor; test: Inhibition of MFS efflux pump in apramycin-resistant cmlR1 null mutant Streptomyces coelicolor assessed as reduction in chloramphenicol MIC at 10 ug/ml after 48 hrs relative to control
[14] = test system: Streptomyces coelicolor; test: Antimicrobial activity against apramycin-resistant cmlR1 null mutant Streptomyces coelicolor B754 after 48 hrs relative to wild type; format: functional
[15] = test system: Streptomyces coelicolor; test: Antimicrobial activity against apramycin-resistant cmlR2 null mutant Streptomyces coelicolor B756 after 48 hrs relative to wild type; format: functional
[16] = test system: Streptomyces coelicolor; test: Antimicrobial activity against Streptomyces coelicolor B759 overexpressing cmlR2 after 48 hrs relative to wild type; format: functional
[17] = test system: Streptomyces coelicolor; test: Antimicrobial activity against Streptomyces coelicolor B758 overexpressing cmlR1 after 48 hrs relative to wild type; format: functional

Structure (SMILES)	fold change (FC) [1]	fold change (FC) [2]	MIC [3] [µg/mL]	fold change (FC) [4]	fold change (FC) [5]	fold change (FC) [6]	fold change (FC) [7]	fold change (FC) [8]	fold change (FC) [9]	fold change (FC) [10]	fold change (FC) [11]	fold change (FC) [12]	fold change (FC) [13]	fold change (FC) [14]	fold change (FC) [15]	fold change (FC) [16]	fold change (FC) [17]
N=C(N)NCCC[C@H](NC(=O)[C@@H](N)Cc1ccccc1)C(=O)Nc1ccc2ccccc2c1 [PABETAN] (H-Phe-Arg-βNA)	2.7	5	200 (≈ 448 µM)	1.7	1.7	3.3	4	1.7	3.3	1.7	8	3.2	2.5	–	–	–	–
CS(=O)(=O)c1ccc([C@@H](O)[C@@H](CF)NC(=O)C(Cl)Cl)cc1 [FLORFENICOL]	–	–	–	–	–	–	–	–	–	–	–	–	–	1.8	3	–	–
COC(=O)[C@H]1[C@H]2C[C@@H]3c4[nH]c5cc(OC)ccc5c4CCN3C[C@H]2C[C@@H](OC(=O)c2cc(OC)c(OC)c(OC)c2)[C@@H]1OC	1.3	3.3	–	2	2	3.3	4	1.3	2.5	2	4	2.7	2.5	–	–	–	–
O=C(N[C@H](CO)[C@H](O)c1ccc([N+](=O)[O-])cc1)C(Cl)Cl [CHLORAMPHENICOL]	–	–	–	–	–	–	–	–	–	–	–	–	–	1.6	16	4	2
CS(=O)(=O)c1ccc([C@@H](O)[C@@H](CO)NC(=O)C(Cl)Cl)cc1 [THIAMPHENICOL]	–	–	–	–	–	–	–	–	–	–	–	–	–	–	>10	–	–
